PubChem BioAssay AID1919006 (Molecular Pharmacology Branch, DTP, NCI, 2023)

System: 885512-296-R-J2-PDC complex spheroid growth, % test/control
Experiment: Anticancer human tumor 885512-296-R-J2-PDC patient-derived breast carcinoma cell line growth inhibition [AhR]
Conditions: for IC50: curve of first compound; for viability, T/C: stronger effect = lower value; active = viability on the fitted dose curve at most 10% of control; inactive = the rest
In short: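 Spheroids combined tumor cells with HUVEC endothelial cells and human MSCs as stroma. AhR antagonists were paired with standard or investigational drugs, each dosed in half-log steps down from near clinical Cmax, or from 10 microM where Cmax was unknown.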

[1] = second compound 0.1 µM, first compound 0.0316 µM
[2] = second compound 0.1 µM, first compound 0.1 µM
[3] = second compound 0.316 µM, first compound 0.0316 µM
[4] = second compound 0.316 µM, first compound 0.1 µM
[5] = second compound 1 µM, first compound 0.0316 µM
[6] = second compound 1 µM, first compound 0.1 µM
[7] = second compound 3.16 µM, first compound 0.0316 µM
[8] = second compound 3.16 µM, first compound 0.1 µM
[9] = second compound 10 µM, first compound 0.0316 µM
[10] = second compound 10 µM, first compound 0.1 µM
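Also: spheroids exposed to compounds for seven days.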

CC[C@@]1(O)C(=O)OCc2c1cc1n(c2=O)Cc2cc3c(CN(C)C)c(O)ccc3nc2-1 + Cc1cncc(-c2nc(NCCc3c[nH]c4ccccc34)c3ncn(C(C)C)c3n2)c1
5.72 nM: IC50 (second compound 0.316 µM)
2.15 nM: IC50 (second compound 3.16 µM)
4.47 nM: IC50 (second compound 1 µM)
< 0.316 nM: IC50 (second compound 10 µM)
active: viability, T/C [1] 9.48% | viability, T/C [2] 6.96% | viability, T/C [4] 4.62% | viability, T/C [5] 6.8% | viability, T/C [6] 6.23% | viability, T/C [8] 7.38% | viability, T/C [10] 4.72%
inactive: viability, T/C (second compound 0.1 µM, first compound 0.000316 µM) 87.8% | viability, T/C (second compound 0.1 µM, first compound 0.001 µM) 96.1% | viability, T/C (second compound 0.1 µM, first compound 0.00316 µM) 67.6% | viability, T/C (second compound 0.1 µM, first compound 0.01 µM) 29.2% | viability, T/C (second compound 0.316 µM, first compound 0.000316 µM) 102% | viability, T/C (second compound 0.316 µM, first compound 0.001 µM) 88.1% | viability, T/C (second compound 0.316 µM, first compound 0.00316 µM) 71.9% | viability, T/C (second compound 0.316 µM, first compound 0.01 µM) 30.6% | viability, T/C [3] 9.89% | viability, T/C (second compound 1 µM, first compound 0.000316 µM) 90.4% | viability, T/C (second compound 1 µM, first compound 0.001 µM) 82.2% | viability, T/C (second compound 1 µM, first compound 0.00316 µM) 62% | viability, T/C (second compound 1 µM, first compound 0.01 µM) 23.6% | viability, T/C (second compound 3.16 µM, first compound 0.000316 µM) 62.9% | viability, T/C (second compound 3.16 µM, first compound 0.001 µM) 60.1% | viability, T/C (second compound 3.16 µM, first compound 0.00316 µM) 44.5% | viability, T/C (second compound 3.16 µM, first compound 0.01 µM) 27.3% | viability, T/C [7] 12.9% | viability, T/C (second compound 10 µM, first compound 0.000316 µM) 21.8% | viability, T/C (second compound 10 µM, first compound 0.001 µM) 21.9% | viability, T/C (second compound 10 µM, first compound 0.00316 µM) 20.9% | viability, T/C (second compound 10 µM, first compound 0.01 µM) 13.7% | viability, T/C [9] 11.5%
5.46 nM: IC50 (second compound 0.1 µM)

CCc1c2c(nc3ccc(O)cc13)-c1cc3c(c(=O)n1C2)COC(=O)[C@]3(O)CC + Cc1cncc(-c2nc(NCCc3c[nH]c4ccccc34)c3ncn(C(C)C)c3n2)c1
inactive: viability, T/C (second compound 0.1 µM, first compound 0.000949 µM) 17.1% | viability, T/C (second compound 0.316 µM, first compound 0.000949 µM) 13.4% | viability, T/C (second compound 1 µM, first compound 0.000949 µM) 13.7% | viability, T/C (second compound 3.16 µM, first compound 0.000949 µM) 14.3% | viability, T/C (second compound 3.16 µM, first compound 0.003 µM) 9.78% | viability, T/C (second compound 10 µM, first compound 0.000949 µM) 15.4%
< 0.949 nM: IC50 (second compound 0.1 µM) | IC50 (second compound 0.316 µM) | IC50 (second compound 1 µM) | IC50 (second compound 3.16 µM) | IC50 (second compound 10 µM)
active: viability, T/C (second compound 0.1 µM, first compound 0.003 µM) 6.62% | viability, T/C (second compound 0.1 µM, first compound 0.00949 µM) 6.47% | viability, T/C (second compound 0.1 µM, first compound 0.03 µM) 4.7% | viability, T/C (second compound 0.1 µM, first compound 0.0949 µM) 3.05% | viability, T/C (second compound 0.1 µM, first compound 0.3 µM) 1.25% | viability, T/C (second compound 0.316 µM, first compound 0.003 µM) 8.06% | viability, T/C (second compound 0.316 µM, first compound 0.00949 µM) 6.14% | viability, T/C (second compound 0.316 µM, first compound 0.03 µM) 3.21% | viability, T/C (second compound 0.316 µM, first compound 0.0949 µM) 2.78% | viability, T/C (second compound 0.316 µM, first compound 0.3 µM) 2.11% | viability, T/C (second compound 1 µM, first compound 0.003 µM) 10.2% | viability, T/C (second compound 1 µM, first compound 0.00949 µM) 6.69% | viability, T/C (second compound 1 µM, first compound 0.03 µM) 3.66% | viability, T/C (second compound 1 µM, first compound 0.0949 µM) 3.03% | viability, T/C (second compound 1 µM, first compound 0.3 µM) 1.71% | viability, T/C (second compound 3.16 µM, first compound 0.00949 µM) 8.43% | viability, T/C (second compound 3.16 µM, first compound 0.03 µM) 4.39% | viability, T/C (second compound 3.16 µM, first compound 0.0949 µM) 2.48% | viability, T/C (second compound 3.16 µM, first compound 0.3 µM) 2.2% | viability, T/C (second compound 10 µM, first compound 0.003 µM) 10.6% | viability, T/C (second compound 10 µM, first compound 0.00949 µM) 5.11% | viability, T/C (second compound 10 µM, first compound 0.03 µM) 2.46% | viability, T/C (second compound 10 µM, first compound 0.0949 µM) 1.12% | viability, T/C (second compound 10 µM, first compound 0.3 µM) 0.78%

Nc1ccn(C2OC(CO)C(O)C2(F)F)c(=O)n1 (stereo not given) + Cc1cncc(-c2nc(NCCc3c[nH]c4ccccc34)c3ncn(C(C)C)c3n2)c1
< 31.6 nM: IC50 (second compound 0.1 µM) | IC50 (second compound 0.316 µM) | IC50 (second compound 1 µM) | IC50 (second compound 3.16 µM) | IC50 (second compound 10 µM)
active: viability, T/C [1] 3.33% | viability, T/C [2] 4.05% | viability, T/C (second compound 0.1 µM, first compound 0.316 µM) 4.69% | viability, T/C (second compound 0.1 µM, first compound 1 µM) 4.03% | viability, T/C (second compound 0.1 µM, first compound 3.16 µM) 3.99% | viability, T/C (second compound 0.1 µM, first compound 10 µM) 4.46% | viability, T/C [3] 3.3% | viability, T/C [4] 3.9% | viability, T/C (second compound 0.316 µM, first compound 0.316 µM) 3.76% | viability, T/C (second compound 0.316 µM, first compound 1 µM) 4.54% | viability, T/C (second compound 0.316 µM, first compound 3.16 µM) 4.43% | viability, T/C (second compound 0.316 µM, first compound 10 µM) 3.99% | viability, T/C [5] 3.48% | viability, T/C [6] 3.69% | viability, T/C (second compound 1 µM, first compound 0.316 µM) 3.49% | viability, T/C (second compound 1 µM, first compound 1 µM) 4.33% | viability, T/C (second compound 1 µM, first compound 3.16 µM) 3.22% | viability, T/C (second compound 1 µM, first compound 10 µM) 3.99% | viability, T/C [7] 5.82% | viability, T/C [8] 4.2% | viability, T/C (second compound 3.16 µM, first compound 0.316 µM) 4.2% | viability, T/C (second compound 3.16 µM, first compound 1 µM) 4.17% | viability, T/C (second compound 3.16 µM, first compound 3.16 µM) 4.29% | viability, T/C (second compound 3.16 µM, first compound 10 µM) 3.8% | viability, T/C [9] 8.48% | viability, T/C [10] 8.12% | viability, T/C (second compound 10 µM, first compound 0.316 µM) 3.15% | viability, T/C (second compound 10 µM, first compound 1 µM) 2.99% | viability, T/C (second compound 10 µM, first compound 3.16 µM) 2.64% | viability, T/C (second compound 10 µM, first compound 10 µM) 2.75%
